Earlier results on one molecule are cited in EP1487791B1, “A NOVEL ANTIFUNGAL MOLECULE 2-(3,4-DIMETHYL-2,5-DIHYDRO-1H-PYRROL-2-YL)- METHYLETHYL PENTANOATE” (priority 2002, dated 2003).

For this data set the following is noted: reported by Zager, R.A., 2000; cited from earlier work.

Take `C[C@@H]1[C@H](O)[C@@H](C)/C=C/C=C/C=C/C=C/C=C/C=C/C=C/[C@H](O[C@@H]2O[C@H](C)[C@@H](O)[C@H](N)[C@@H]2O)C[C@@H]2O[C@](O)(C[C@@H](O)C[C@@H](O)[C@H](O)CC[C@@H](O)C[C@@H](O)CC(=O)O[C@H]1C)C[C@H](O)[C@H]2C(=O)O` [amphotericin B]: the CT50 was 4.0 to 64.0 µg/mL.
